# Data: patent publication US10722484B2, “Methods of cancer treatment” (K-Gen, Inc., priority 2016, dated 2020)
# Where two headings read alike, the source gives them in different places.
# Tests used:
# H1915 = experiment: Proliferation assay (CellTiter Glo); format: cell-based; details: H1915 (RAS WT); 96 hours
# Experimental: (§1) The dose range for most compounds was 4.6 nM-30 μM. The dose ranges for some compounds were adjusted downward to 0.46 nM-3 μM or 0.08 nM-0.5 μM or 0.03 nM-0.2 μM. […] The results are shown in Tables 3-6 for pancreatic cancer, lung cancer, colon/gastric cancer, and leukemia.
# (§2) Other cancer cell lines having wild-type K-RAS status and K-RAS mutation at G12 were also screened using the PKC activator compounds. […] K104 was tested in a range of 0.03 nM-0.2 μM. […] The dose ranges were adjusted downward to 0.46 nM-3 μM for K102 and 0.08 nM-0.5 μM for K103 for some cell lines. The results of the screening of cancer cells lines with wild-type K-RAS status and K-RAS mutations at the G12 positions are presented in Table 7.
# HT29 = experiment: Proliferation assay (CellTiter Glo); format: cell-based; details: HT29 (RAS WT); 96 hours
# Experimental: as §1, §2
# H838 = experiment: Proliferation assay (CellTiter Glo); format: cell-based; details: H838 (RAS WT); 96 hours
# Experimental: as §1, §2
# BxPC-3 = experiment: Proliferation assay (CellTiter Glo); format: cell-based; details: BxPC-3 (RAS WT); 96 hours
# Experimental: as §1, §2
# Colo205 = experiment: Proliferation assay (CellTiter Glo); format: cell-based; details: Colo205 (RAS WT); 96 hours
# Experimental: as §1, §2
# Capan-1 = experiment: Proliferation assay (CellTiter Glo); format: cell-based; details: 96 hours
# Experimental: as §1
# A549 = experiment: Proliferation assay (CellTiter Glo); format: cell-based; details: 96 hours
# Experimental: as §1
# H358 = experiment: Proliferation assay (CellTiter Glo); format: cell-based; details: HE58, 96 hours
# Experimental: as §1
# H441 = experiment: Proliferation assay (CellTiter Glo); format: cell-based; details: 96 hours
# Experimental: as §1
# HCT116 = experiment: Proliferation assay (CellTiter Glo); format: cell-based; details: 96 hours
# Experimental: as §1
# KP-4 = experiment: Proliferation assay (CellTiter Glo); format: cell-based; details: 96 hours
# Experimental: as §1
# LS180 = experiment: Proliferation assay (CellTiter Glo); format: cell-based; details: 96 hours
# Experimental: as §1
# H727 = experiment: Proliferation assay (CellTiter Glo); format: cell-based; details: 96 hours
# Experimental: as §1
# AGS = experiment: Proliferation assay (CellTiter Glo); format: cell-based; details: 96 hours
# Experimental: as §1
# SW620 = experiment: Proliferation assay (CellTiter Glo); format: cell-based; details: 96 hours
# Experimental: as §1
# MiaPaCa-2 = experiment: Proliferation assay (CellTiter Glo); format: cell-based; details: 96 hours
# THP1 = experiment: Proliferation assay (CellTiter Glo); format: cell-based, human; details: 96 hours
# Experimental: as §1
# HL60 = experiment: Proliferation assay (CellTiter Glo); format: cell-based, human; details: 96 hours
# Experimental: as §1
# [1] = test system: HL-60 human promyelocytic leukemia cells; experiment: Combination viability/proliferation assays; details: combined with K101A (0.3 μM) or K102 (0.005 μM)
# Experimental: Briefly, cells at density of 1,000-10,000 cells/well in 96-well plates or 200-1600 cells/well in 384-well plates were seeded and incubated at 37° C. for 24 hours before addition of compounds. A series of 9 different concentrations of compound stocks (500×) were prepared by 3-fold serial dilutions in DMSO. […] After 96 hours of incubation, 35 μL or 50 μL of CellTiter Glo reagent (Promega) was added to each well and luminescence was measured after 10 minutes using EnVision (PerkinElmer). Luminescence from cells treated with DMSO alone was set as Max and % of inhibition was calculated as follows: Inhibition %=(Max-Sample value)/Max*100. Data were analyzed using XLfit software (ID Business Solutions Ltd.) or GraphPad software and IC50, relative IC50, and % of top inhibition were calculated.
# The top concentration for the tested PKC activator compound was set at roughly the IC50 when the same testing compound was used as a single agent assayed in the same cell line. The next dose was either 3-fold or 10-fold dilution from the top concentration.
# [2] = test system: A549 lung cancer cell line; experiment: Combination viability/proliferation assays (384-well IC50 ratio, 96-well MacSynergy II); format: cell-based; details: for Ratio ([…] DMSO IC50/combination IC50) / Combination in A549: K101A (synergism/antagonism) / Combination in A549: K102 (synergism/antagonism) / Combination in A549: K101E (synergism/antagonism): A549; for effect in combination with the PKC activator compounds in inhibiting the growth of A549 cells: PKC activator compounds (K101A, K101E, K102); for Combination in A549: K101A (synergism/antagonism): agent assayed in combination with K101A; for Combination in A549: K101A (synergism/antagonism) / Combination in A549: K102 (synergism/antagonism): * 2-3 concentrations, # full concentration ranges; for Combination in A549: K102 (synergism/antagonism): agent assayed in combination with K102; for Combination in A549: K101E (synergism/antagonism): agent assayed in combination with K101E
# Experimental: (§3) A 96-well MacSynergy II format for combination test was also used. […] The analysis was done with the SQRT(Data) scale and the four parameter Hill curve was fitted using XLfit5.1 (the MacSynergy II Excel Spreadsheet) for the inhibition data. Synergy (positive number) or Antagonism (negative number) volumes were calculated. […] Three-dimensional MacSynergy II graphs were generated where positive values indicated synergism and negative values indicated antagonism.
# Panc2.13 = experiment: Combination viability/proliferation assays; format: cell-based; details: for effect in combination with K101A: Panc2.13, K101A at 1 μM or at 0.67 μM; for Combination effect, Panc2.13: K101A: agent in combination with K101A
# Experimental: as §3
# [3] = in combination with 0.0002 μM K102, NC: no change
# [4] = in combination with 0.002 μM K102, NC: no change
# [5] = in combination with 0.005 μM K101A, NC: no change
# [6] = in combination with 0.02 μM K102, NC: no change
# [7] = in combination with 0.05 μM K101A, NC: no change
# [8] = in combination with 0.5 μM K101A, ratio >2 synergistic, <0.5 antagonistic, NC: no change
smiles,measurement,setting,value
CC(=O)OC12CC(C)C3(O)C(C4OC4(CO)CC4(O)C(O)C(C)=CC43)C1C2(C)C (centres unmarked) [Compound K101D],Top Inhibition %,H1915,28.6%
same,Top Inhibition %,HT29,10.0%
same,Top Inhibition %,H838,27.7%
same,Top Inhibition %,BxPC-3,37.49%
same,Top Inhibition %,Colo205,42.3%
same,EC50,"Capan-1; Capan-1 (K-RAS: G12V), absolute EC50, read-out: Ab EC50",> 30 µM
same,Top Inhibition %,"Capan-1; Capan-1, % of top inhibition",22.3%
same,EC50,"Capan-1; Capan-1, relative EC50, read-out: Re EC50",8.66 µM
same,EC50,"A549; A549 (K-RAS: G12S), absolute EC50, read-out: Ab EC50",> 30 µM
same,Top Inhibition %,"A549; A549, % of top inhibition",44.4%
same,EC50,"A549; A549, relative EC50, read-out: Re EC50",7.72 µM
same,Top Inhibition %,H358; % of top inhibition,23.0%
same,EC50,"H358; absolute EC50, read-out: Ab EC50",> 30 µM
same,EC50,"H358; relative EC50, read-out: Re EC50",11 µM
same,EC50,"H441; H441 (K-RAS: G12V), absolute EC50, read-out: Ab EC50",> 30 µM
same,Top Inhibition %,"H441; H441, % of top inhibition",11.6%
same,EC50,"HCT116; HCT116 (K-RAS: G13D), absolute EC50, read-out: Ab EC50",> 30 µM
same,Top Inhibition %,"HCT116; HCT116, % of top inhibition",3.0%
same,EC50,"KP-4; KP-4 (K-RAS: G12C), absolute EC50, read-out: Ab EC50",> 30 µM
same,Top Inhibition %,"KP-4; KP-4, % of top inhibition",47.9%
same,EC50,"KP-4; KP-4, relative EC50, read-out: Re EC50",5.47 µM
same,EC50,"LS180; LS180 (K-RAS: G12D), absolute EC50, read-out: Ab EC50",> 30 µM
same,Top Inhibition %,"LS180; LS180, % of top inhibition",8.2%
same,EC50,"H727; H727 (K-RAS: G12V), absolute EC50, read-out: Ab EC50",> 30 µM
same,Top Inhibition %,"H727; H727, % of top inhibition",31.8%
same,EC50,"H727; H727, relative EC50, read-out: Re EC50",8.37 µM
same,EC50,"AGS; AGS (gastric, K-RAS: G12D), absolute EC50, read-out: Ab EC50",> 30 µM
same,Top Inhibition %,"AGS; AGS, % of top inhibition",13.5%
same,EC50,"SW620; SW620 (K-RAS: G12V), absolute EC50, read-out: Ab EC50",> 30 µM
same,Top Inhibition %,"SW620; SW620, % of top inhibition",0.0%
same,EC50,"MiaPaCa-2; MiaPaCa-2 (K-RAS: G12C), absolute EC50, read-out: Ab EC50",> 30 µM
same,Top Inhibition %,"MiaPaCa-2; MiaPaCa-2, % of top inhibition",18.6%
same,EC50,"THP1; THP1 (N-RAS: G12D), absolute EC50, read-out: Ab EC50",> 30 µM
same,Top Inhibition %,"THP1; THP1, % of top inhibition",33.6%
same,EC50,"THP1; THP1, relative EC50, read-out: Re EC50",14 µM
same,EC50,"HL60; HL60 (N-RAS: Q61L), absolute EC50, read-out: Ab EC50",> 30 µM
same,Top Inhibition %,"HL60; HL60, % of top inhibition",14.4%
Cc1nc(Nc2ncc(C(=O)Nc3c(C)cccc3Cl)s2)cc(N2CCN(CCO)CC2)n1 [Dasatinib],increase of potency in inhibiting growth,[1],more than 10 fold
"O=C1[C@H](Cc2ccc(O)cc2)N2C(=O)CCN(C(=O)NCc3ccccc3)[C@H]2CN1Cc1cccc2ccccc12 [ICG-001, (6S,9aS)-Hexahydro-6-[(4-hydroxyphenyl)methyl]-8-(1-naphthalenylmethyl)-4,7-dioxo-N-(phenylmethyl)-2H-pyrazino[1,2-a]pyrimidine-1(6H)-carboxamide]",Ratio ([…] DMSO IC50/combination IC50),[2]; in combination with 0.013 μM K102,0.96
same,Ratio ([…] DMSO IC50/combination IC50),[2]; in combination with 0.04 μM K102,1.10
same,Ratio ([…] DMSO IC50/combination IC50),[2]; in combination with 0.33 uM K101A,1.05
same,Ratio ([…] DMSO IC50/combination IC50),[2]; in combination with 1 uM K101A,1.10
same,effect in combination with K101A or K102 in inhibiting the growth of A549 cells,[2]; K101A or K102,did not show synergy
same,effect in combination with the PKC activator compounds in inhibiting the growth of A549 cells,[2],insignificant synergism or antagonism
same,Combination in A549: K101A (synergism/antagonism),[2],None
same,Combination in A549: K102 (synergism/antagonism),[2],None
same,effect in combination with K101A,Panc2.13,strong synergy
same,"Combination effect, Panc2.13: K101A",Panc2.13,Synergism
"NC1(c2ccc(-c3nc4ccn5c(=O)[nH]nc5c4cc3-c3ccccc3)cc2)CCC1 [MK2206, 8-[4-(1-aminocyclobutyl)phenyl]-9-phenyl-2H-[1,2,4]triazolo[3,4-f][1,6]naphthyridin-3-one]",Ratio ([…] DMSO IC50/combination IC50),[2]; [3],0.81
same,Ratio ([…] DMSO IC50/combination IC50),[2]; [4],3.13
same,Ratio ([…] DMSO IC50/combination IC50),[2]; [5],0.68
same,Ratio ([…] DMSO IC50/combination IC50),[2]; [6],5.57
same,Ratio ([…] DMSO IC50/combination IC50),[2]; [7],2.13
same,Ratio ([…] DMSO IC50/combination IC50),[2]; [8],6.03
same,effect in combination with the PKC activator compounds in inhibiting the growth of A549 cells,[2],strong synergy
same,Combination in A549: K101A (synergism/antagonism),[2],Synergism (strong)
same,Combination in A549: K101E (synergism/antagonism),[2],Synergism
same,Combination in A549: K102 (synergism/antagonism),[2],Synergism (strong)
same,"Combination effect, Panc2.13: K101A",Panc2.13,None
O=C(c1cc(Cc2n[nH]c(=O)c3ccccc23)ccc1F)N1CCN(C(=O)C2CC2)CC1 [Olaparib],Ratio ([…] DMSO IC50/combination IC50),[2]; [3],0.78
same,Ratio ([…] DMSO IC50/combination IC50),[2]; [4],1.43
same,Ratio ([…] DMSO IC50/combination IC50),[2]; [5],0.91
same,Ratio ([…] DMSO IC50/combination IC50),[2]; [6],2.74
same,Ratio ([…] DMSO IC50/combination IC50),"[2]; in combination with 0.03 μM K101E (footnote, Olaparib)",1.15
same,Ratio ([…] DMSO IC50/combination IC50),[2]; [7],1.38
same,Ratio ([…] DMSO IC50/combination IC50),"[2]; in combination with 0.3 μM K101E (footnote, Olaparib)",1.30
same,Ratio ([…] DMSO IC50/combination IC50),[2]; [8],2.76
same,Ratio ([…] DMSO IC50/combination IC50),"[2]; in combination with 3 μM K101E (footnote, Olaparib)",1.97
same,effect in combination with the PKC activator compounds in inhibiting the growth of A549 cells,[2],synergistic effect
same,Combination in A549: K101A (synergism/antagonism),[2],Synergism
same,Combination in A549: K101E (synergism/antagonism),[2],None
same,Combination in A549: K102 (synergism/antagonism),[2],Synergism
same,effect in combination with K101A,Panc2.13,strong synergy
same,"Combination effect, Panc2.13: K101A",Panc2.13,Synergism
